Experimental data as given in ChEMBL document CHEMBL3596153, “Trichormamides C and D, antiproliferative cyclic lipopeptides from the cultured freshwater cyanobacterium cf. Oscillatoria sp. UIC 10045” (Bioorg Med Chem, 2015).
Converted amounts (≈) assume the structure as drawn. The source made the active and inactive calls. The calls are words filed in the database; no cut-off is given here.

Key:
[1] = system: HT-29; assay: Antiproliferative activity against human HT-29 cells; type: functional, cell-based
[2] = system: Candida albicans; assay: Antimicrobial activity against Candida albicans at 50 ug/ml; type: functional, organism-based
[3] = system: Escherichia coli; assay: Antimicrobial activity against Escherichia coli at 50 ug/ml; type: functional, organism-based
[4] = system: Mycolicibacterium smegmatis; assay: Antimicrobial activity against Mycobacterium smegmatis at 50 ug/ml; type: functional, organism-based
[5] = system: MDA-MB-435; assay: Antiproliferative activity against human MDA-MB-435 cells; type: functional, cell-based
[6] = system: Staphylococcus aureus; assay: Antimicrobial activity against Staphylococcus aureus at 50 ug/ml; type: functional, organism-based
[7] = system: Mycobacterium tuberculosis; assay: Antimicrobial activity against Mycobacterium tuberculosis; type: functional
[8] = system: Mycobacterium tuberculosis; assay: Antimicrobial activity against Mycobacterium tuberculosis at 50 ug/ml; type: functional, organism-based

Structure (SMILES) | IC50 [1] [µM] | Activity [2] | Activity [3] | Activity [4] | IC50 [5] [µM] | Activity [6] | MIC [7] [µg/mL] | Activity [8]
CCCCCCC[C@@H]1CC(=O)N[C@@H](C(C)C)C(=O)N[C@H]([C@@H](O)C(C)C)C(=O)N[C@@H](C)C(=O)N[C@H]([C@@H](O)C(C)C)C(=O)N[C@@H](CCC(N)=O)C(=O)N(C)[C@@H]([C@@H](C)CC)C(=O)N[C@H](CC(N)=O)C(=O)N[C@@H]([C@@H](C)O)C(=O)N2CCC[C@H]2C(=O)N[C@H](CC(C)C)C(=O)N[C@@H]([C@@H](C)O)C(=O)N1 | 1.7 | inactive | inactive | inactive | 1 | inactive | 23.8 (≈ 17.3 µM) | 
C/C=C1/NC(=O)[C@H](CCC(N)=O)NC(=O)C[C@@H](CCCCCCC)NC(=O)CNC(=O)[C@H](CC(C)C)NC(=O)[C@@H](Cc2ccccc2)NC(=O)[C@H](C(C)C)NC(=O)[C@@H](CC(C)C)NC(=O)[C@@H](Cc2ccc(O)cc2)NC(=O)[C@H](CO)NC(=O)[C@@H]2CCCN2C1=O | 11.5 | inactive | inactive | inactive | 11.7 | inactive |  | inactive
